Like-named read-outs stand apart in the source and are kept apart here.
Conditions: human, in vivo
Method: The reconstituted solution was drawn up in a 10 mL syringe for administration.
This solution was divided into two syringes (1.25 mL per syringe) for administration.
During the infusion, the subjects were kept in a supine position. […] Moreover, all subjects were given a standard lunch at noon, a standard dinner at 6:00 PM and a standard snack at 10:00 PM.
This formulation was administered by gently squirting the solution in the back of the subject's throat. […] All subjects were given a standard lunch at noon, a standard dinner at 6:00 PM and a standard snack at 10:00 PM.
All subjects were given a standard lunch at noon, a standard dinner at 6:00 PM and a standard snack at 10:00 PM.
Non-compartmental modelling of the data was performed.

Relative bioavailability Ratio PO/IV (Metabolite): 0.32
Relative bioavailability Ratio SC/IV (Metabolite): 0.71
time at which WR-1065 concentration fell below 5 μM (iv): approximately 45 minutes
time at which WR-1065 concentration fell below 5 μM (sc): approximately 60 minutes
peak levels (maximum whole blood concentration) (male, iv): about 23 μM
time within which whole blood concentrations peaked and declined rapidly (male, iv): ≤ 10 min
maximum blood levels (male, sc): ~4 µM
time to maximum and sustained whole blood concentration (male, sc): 15 to 45 min
SMILES: NCCCNCCS [WR-1065, S-2-(3-Aminopropyl Amino) ethanethiol]
